Laboratory results: PubChem BioAssay (NCI)
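Briefly, cells in 96-well plates were exposed to five compound concentrations for 48 h, and endpoints were estimated by linear interpolation. The concentration for 50% growth inhibition is given as GI50. At the TGI there is no net growth.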

What was measured:
Test in all cases: inhibition of tumour cell growth, NCI panel, 48 h
U251 CNS = system: U251 CNS
SK-MEL-5 melanoma = system: SK-MEL-5 melanoma
NCI-H23 lung = system: NCI-H23 lung
OVCAR-4 ovarian = system: OVCAR-4 ovarian
KM12 colon = system: KM12 colon
HCC-2998 colon = system: HCC-2998 colon
HOP-92 NSCLC = system: HOP-92 NSCLC
NCI-H460 lung = system: NCI-H460 lung
HT29 colon = system: HT29 colon
UACC-257 melanoma = system: UACC-257 melanoma

| SMILES | GI50 (U251 CNS) [µM] | TGI (U251 CNS) [µM] | GI50 (SK-MEL-5 melanoma) [µM] | TGI (SK-MEL-5 melanoma) [µM] | GI50 (NCI-H23 lung) [µM] | TGI (NCI-H23 lung) [µM] | GI50 (OVCAR-4 ovarian) [µM] | TGI (OVCAR-4 ovarian) [µM] | GI50 (KM12 colon) [µM] | TGI (KM12 colon) [µM] | GI50 (HCC-2998 colon) [µM] | TGI (HCC-2998 colon) [µM] | GI50 (HOP-92 NSCLC) [µM] | TGI (HOP-92 NSCLC) [µM] | GI50 (NCI-H460 lung) [µM] | TGI (NCI-H460 lung) [µM] | GI50 (HT29 colon) [µM] | TGI (HT29 colon) [µM] | GI50 (UACC-257 melanoma) [µM] | TGI (UACC-257 melanoma) [µM] |
| --- | --- | --- | --- | --- | --- | --- | --- | --- | --- | --- | --- | --- | --- | --- | --- | --- | --- | --- | --- | --- |
| CC(C)C[C@H](NC(=O)[C@H](Cc1ccccc1)n1ccc(N2CCCCC2)cc1=O)B(O)O | 1.18 | > 100 | 0.367 | 3.11 | 1.59 | > 100 | 2.06 | > 100 | 1.33 | 4.38 | 1.14 | 3.09 | 1.34 | 5.61 | 3.18 | > 100 | 0.449 | > 100 |  |  |
| O=C1/C(=C/c2cccc([N+](=O)[O-])c2)COc2ccc(O)c(O)c21 | 1.17 | 2.64 | 1.55 | 2.95 | 1.75 | 3.95 | 1.46 | 2.8 | 1.68 | 3.4 | 1.66 | 3.22 | 2.24 | 8.22 | 2.08 | 4.97 | 2.89 | 19.1 | 1.86 | 4.81 |
| O=C(Nc1ccc(Cl)c([N+](=O)[O-])c1)Nc1nc2ccccc2s1 | 3.36 | 13.4 | 1.88 | 4.17 | 2.4 | 9.05 | 4.21 | 26 | 2.82 | 8.32 | 3.03 | 13.1 | 2.34 | 7.06 | 2.93 | 9.45 | 3.51 | 11.6 | 2.4 | 6.99 |
| CN1CCN(Cc2ccc(-c3cc4ncnc(Nc5ccc(OCc6cccc(F)c6)c(Cl)c5)c4s3)o2)CC1 | 3.34 | 7.12 | 3.77 | 7.54 | 4.29 | 8.44 | 3.69 | 7.5 | 4.44 | 8.19 | 4.24 | 7.99 | 2.76 | 6.51 | 4.56 | 8.85 | 1.38 | 4.3 | 4.26 | 8.37 |
| COc1cccc(N2C(=O)c3c(c4[nH]c5ccccc5c4c4ccc(C(C)(C)C)cc34)C2=O)c1 |  | > 100 |  | > 100 |  | > 100 |  | > 100 |  | > 100 |  | > 100 |  | > 100 |  | > 100 |  |  |  | > 100 |
| O=C(Nc1ccc(Cl)c(C(F)(F)F)c1)C(=O)C(C(=O)/C=C/c1ccccc1)C1OC(=O)c2ccccc21 (stereo unspecified) |  | > 100 |  |  |  | > 100 |  | > 100 |  | > 100 |  | > 100 |  | > 100 |  | > 100 |  | > 100 |  | > 100 |
| C/C(=N\N=C(N)N)C(CN(CC(C)C)CC(C)C)C(=O)Nc1ccc(C)cc1C (stereo unspecified) |  | > 100 |  | > 100 |  | > 100 |  | > 100 |  | > 100 |  | > 100 |  | > 100 |  | > 100 |  | > 100 |  | > 100 |
| COC(=O)C1(C)C=C(Nc2ccccc2)C(=O)N1c1ccccc1 (stereo unspecified) |  | > 100 |  | > 100 |  | > 100 |  | > 100 |  | > 100 |  | > 100 |  | > 100 |  | > 100 |  | > 100 |  | > 100 |
| O=C(O)c1ccc(NC(=O)C2C(=O)C(=O)N(c3ccc(C(=O)O)cc3)C2=O)cc1 (stereo unspecified) |  | > 100 |  |  |  | > 100 |  | > 100 |  | > 100 |  | > 100 |  | > 100 |  | > 100 |  | > 100 |  | > 100 |
| COc1nc2c(OC)cccc2c(OC)c1C=O |  | > 100 |  | > 100 |  | > 100 |  |  |  | > 100 |  |  |  |  |  | > 100 |  | > 100 |  | > 100 |
| CS(=O)(=O)c1ccc(Oc2cc(F)cc(C#N)c2)c2c1[C@H](O)[C@H](F)[C@@H]2F | > 100 | > 100 | > 100 | > 100 | > 100 | > 100 | > 100 | > 100 | > 100 | > 100 | > 100 | > 100 |  |  | > 100 | > 100 | > 100 | > 100 | > 100 | > 100 |
| C=CC1(C)CCC(C(C)C(=O)C(C=C(C)C)OC(C)=O)C12C(=O)Oc1ccccc1C2=O (stereo unspecified) |  | > 100 |  |  |  | > 100 |  | > 100 |  | > 100 |  | > 100 |  | > 100 |  | > 100 |  | > 100 |  | > 100 |
| CC(C(=O)N1C(=O)N(C(=O)C(C)C(O)c2ccccc2)C(c2ccccc2)C1c1ccccc1)C(O)c1ccccc1 (stereo unspecified) |  | 27.8 |  |  |  | > 100 |  | > 100 |  | 5.69 |  | > 100 |  | 40.4 |  | 19.9 |  | 18.8 |  |  |
| CN(N=O)C(=O)Nc1c[nH]c(=O)[nH]c1=O |  | > 100 |  | > 100 |  | > 100 |  | > 100 |  | > 100 |  | > 100 |  | > 100 |  |  |  | > 100 |  | > 100 |
| Oc1ccc(C(c2ccccc2)(c2ccccc2)c2ccccc2)cc1 | 28.9 | > 100 | 15.7 | 32.5 | 14 | 28.9 | 12.3 | 25.2 | 19.3 | 48.7 | 12.7 | 25.7 | 17.8 | 34.1 | 15.3 | 48.1 |  |  | 15.5 | 31.3 |
| CC(Cn1c2c3ccccc3ccc2c2oc(=O)c3ccccc3c21)N(C)C (stereo unspecified) |  | > 100 |  |  |  | > 100 |  | > 100 |  | > 100 |  |  |  | > 100 |  | > 100 |  | > 100 |  | > 100 |
| CC(C)C(C(=O)O)N(CC1(O)OCC(O)C(O)C1O)N=O (stereo unspecified) |  | > 100 |  | > 100 |  | > 100 |  |  |  | > 100 |  | > 100 |  | > 100 |  | > 100 |  | > 100 |  | > 100 |
